Data reported in paper PMC4936967 (Molecular cancer therapeutics, 2016).

Tests used:
[1] = target: GSK3α (Homo sapiens, UniProt P49840); assay: radioactive […]-ATP in vitro kinase assay, 10-dose IC50, […] ATP; assay type: biochemical
[2] = target: GSK3β (Homo sapiens, UniProt P49841); assay: as above; assay type: biochemical
Chain of GSK3β (P49841 whole entry): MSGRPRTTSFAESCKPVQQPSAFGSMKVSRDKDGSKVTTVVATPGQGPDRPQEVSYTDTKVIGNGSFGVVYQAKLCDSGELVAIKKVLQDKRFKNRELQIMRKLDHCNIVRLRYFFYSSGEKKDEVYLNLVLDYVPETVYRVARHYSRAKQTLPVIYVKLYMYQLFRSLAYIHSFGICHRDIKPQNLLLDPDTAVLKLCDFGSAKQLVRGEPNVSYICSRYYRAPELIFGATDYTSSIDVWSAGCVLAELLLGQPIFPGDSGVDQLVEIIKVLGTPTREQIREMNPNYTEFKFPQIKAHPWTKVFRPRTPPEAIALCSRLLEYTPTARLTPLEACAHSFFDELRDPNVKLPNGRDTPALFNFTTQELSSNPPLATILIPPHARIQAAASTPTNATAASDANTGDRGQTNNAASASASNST

Chain of GSK3α (P49840 2-483): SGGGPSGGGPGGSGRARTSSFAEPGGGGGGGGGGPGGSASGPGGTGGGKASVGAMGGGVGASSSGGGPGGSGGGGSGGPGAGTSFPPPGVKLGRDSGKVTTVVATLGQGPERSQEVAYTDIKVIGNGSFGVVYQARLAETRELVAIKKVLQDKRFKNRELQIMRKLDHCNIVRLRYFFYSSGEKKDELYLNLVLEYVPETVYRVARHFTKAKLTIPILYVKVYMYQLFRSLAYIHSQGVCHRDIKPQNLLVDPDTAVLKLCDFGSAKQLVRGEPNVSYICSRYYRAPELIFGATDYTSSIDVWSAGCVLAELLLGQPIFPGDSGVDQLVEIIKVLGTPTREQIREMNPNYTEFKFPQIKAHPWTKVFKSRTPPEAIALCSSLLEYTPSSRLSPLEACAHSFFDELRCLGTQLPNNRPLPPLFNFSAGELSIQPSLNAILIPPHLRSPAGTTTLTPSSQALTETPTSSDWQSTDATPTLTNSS

For GS87, which IC50 [1] is on record?
The IC50 was 415 nM.

And the IC50 [2]?
Its IC50 is 521 nM.
